Results: article PMC9038752, “Molecular mechanisms of bifunctional vitamin D receptor agonist-histone deacetylase inhibitor hybrid molecules in triple-negative breast cancer” (Scientific Reports, 2022)

Assays:
purified HDAC2 = target: T1, purified HDAC2 (Homo sapiens, UniProt Q92769); assay: Fluorogenic HDAC inhibition assay, HDAC2; assay type: biochemical; conditions: purified HDAC2, fluorometric substrate
T1 construct: purchased Cayman Chemical
Method: (§1) The hybrids were assessed to determine their HDACi and VDR agonist activity as well as their antiproliferative properties relative to DK-406. HDACi activity was assessed in vitro using an acetylated lysine substrate that releases a fluorescent reporter upon HDACi deacetylation and subsequent trypsin digestion. Increasing sidechain length of pyrimidine hybrids enhanced the potency of HDAC6 inhibition, with several compounds inhibiting HDAC6 with a sub-micromolar IC50, similar to that of DK-406 (Fig. 4a). […] Next, we analyzed the effects of compounds on levels of H3K9 and H3K27 acetylation in 4TO7 cells, which are controlled by class I HDACs[29],[30]. […] We also tested the capacity of analogues to induce tubulin acetylation, controlled by class II enzyme HDAC6[32], in 4TO7 cells. Based on their relative efficacy in cytotoxicity assays (see below, Fig. 5c,d), we used 10^–5 M DK-406 and 10^–6 M AM-193 for these studies.
(§2) Figure 4 (a) Results of in vitro assays for inhibition of purified HDAC2 and HDAC6 by DK-406 and heterocyclic hybrids as measured by inhibition of deacetylation of a fluorometric substrate (see Methods for details). (b–d) Left: Western blotting analysis of histone 3 lysine 9 (H3K9; b), H3K27 (c), or acetylated tubulin (d), levels in 4TO7 cells treated with ligands for 6 h. Representative western-blots are shown from at least 3 biological replicates. Right: Graphs representing the average of the replicates, bars are mean ± SD. Each condition was compared to control. *: p ≤ 0.05, **: p ≤ 0.01, ***: p ≤ 0.001, ****: p ≤ 0.0001, ns: not significant. TEXT PRINTED IN THE PICTURE: (a) DK-406: HDAC6 IC50 (μM): 0.6; HDAC2 IC50 (μM): 0.5 | (a) AM-155: HDAC6 IC50 (μM): 2.8; HDAC2 IC50 (μM): 1.7 | (a) AM-171: HDAC6 IC50 (μM): 0.5; HDAC2 IC50 (μM): 9.6 | (a) AM-172: HDAC6 IC50 (μM): 0.3; HDAC2 IC50 (μM): 7.7 | (a) AM-191: HDAC6 IC50 (μM): 1.9; HDAC2 IC50 (μM): 8.1 | (a) AM-192: HDAC6 IC50 (μM): 0.5; HDAC2 IC50 (μM): 6.5 | (a) AM-193: HDAC6 IC50 (μM): 0.3; HDAC2 IC50 (μM): 7.2
(§3) Purified HDAC2 and HDAC6 were purchased from Cayman Chemical. Boc-Lys(Ac)-7-amino-4-methylcoumarin (BocLys(Ac)-AMC) was used as substrate for the HDAC assays. Substrate solution was prepared as follow: Boc(Lys-Ac)-AMC was dissolved in DMSO and diluted with HDAC buffer (15 mM tris–HCl [pH 8.1], 250 μM EDTA, 250 mM NaCl, 10% glycerol) to give 1 mM solutions containing 1.7% DMSO. Trypsin was used to stop the reaction, releasing free AMC. The trypsin solution was prepared as follow: trypsin was dissolved in HDAC buffer to give a concentration of 10 mg/mL. Release of AMC was monitored by measuring the fluorescence at 460 nm (lex = 390 nm) with a microplate reader (SpectraMax Gemini from Molecular Devices) at 37 °C. The AMC signals were recorded against a blank with buffer, substrate and trypsin but without the enzyme. All experiments were carried out at least in triplicate.
(§4) For HDAC inhibition assays, inhibitor diluted in 50 μL of HDAC buffer was mixed with 10 μL of diluted enzyme solution in HDAC buffer at room temperature. The HDAC reaction was started by adding 40 μL of substrate solution in HDAC buffer followed by 60 min of incubation with stirring at 37 °C. The reaction was stopped by adding 100 μL of trypsin solution. After a 30 min incubation with stirring at 37 °C, the release of AMC was monitored by measuring the fluorescence.

purified HDAC6 = target: T2, purified HDAC6 (Homo sapiens, UniProt Q9UBN7); assay: Fluorogenic HDAC inhibition assay, HDAC6; assay type: biochemical; conditions: purified HDAC6, fluorometric substrate
T2 construct: purchased Cayman Chemical
T2 sequence (Q9UBN7 1-1215): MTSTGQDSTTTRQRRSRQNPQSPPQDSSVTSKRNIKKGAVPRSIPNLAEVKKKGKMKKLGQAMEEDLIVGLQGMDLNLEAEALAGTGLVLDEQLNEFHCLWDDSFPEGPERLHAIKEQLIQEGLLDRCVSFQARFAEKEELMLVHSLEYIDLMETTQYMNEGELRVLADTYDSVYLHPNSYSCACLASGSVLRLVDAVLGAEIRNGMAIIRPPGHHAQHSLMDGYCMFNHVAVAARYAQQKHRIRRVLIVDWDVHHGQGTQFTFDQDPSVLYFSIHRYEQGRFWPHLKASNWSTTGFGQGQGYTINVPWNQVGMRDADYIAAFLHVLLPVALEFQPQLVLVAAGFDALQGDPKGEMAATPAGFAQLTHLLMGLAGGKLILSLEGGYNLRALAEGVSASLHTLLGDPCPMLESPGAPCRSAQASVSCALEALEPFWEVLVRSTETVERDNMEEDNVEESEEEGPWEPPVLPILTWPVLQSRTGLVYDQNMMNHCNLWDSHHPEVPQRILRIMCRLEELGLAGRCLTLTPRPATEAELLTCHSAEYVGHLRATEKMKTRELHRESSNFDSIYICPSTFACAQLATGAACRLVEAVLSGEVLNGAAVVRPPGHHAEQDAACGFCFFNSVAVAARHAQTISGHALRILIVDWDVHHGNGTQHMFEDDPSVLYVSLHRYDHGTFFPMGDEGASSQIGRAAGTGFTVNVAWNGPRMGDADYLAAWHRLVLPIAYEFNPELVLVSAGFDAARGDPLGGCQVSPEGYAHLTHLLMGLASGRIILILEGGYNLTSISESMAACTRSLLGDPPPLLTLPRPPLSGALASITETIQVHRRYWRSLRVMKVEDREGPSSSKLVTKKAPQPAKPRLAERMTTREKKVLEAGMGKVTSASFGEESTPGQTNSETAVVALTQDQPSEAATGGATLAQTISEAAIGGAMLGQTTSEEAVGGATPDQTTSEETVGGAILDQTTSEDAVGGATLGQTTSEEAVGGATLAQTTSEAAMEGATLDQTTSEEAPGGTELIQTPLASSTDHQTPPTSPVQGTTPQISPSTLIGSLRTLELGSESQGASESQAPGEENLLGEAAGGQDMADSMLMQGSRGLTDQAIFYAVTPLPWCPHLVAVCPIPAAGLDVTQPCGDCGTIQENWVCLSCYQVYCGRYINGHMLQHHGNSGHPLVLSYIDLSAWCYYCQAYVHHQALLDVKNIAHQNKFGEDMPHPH
Method: as §1, §2, §3, §4

T1 sequence (Q92769 whole entry): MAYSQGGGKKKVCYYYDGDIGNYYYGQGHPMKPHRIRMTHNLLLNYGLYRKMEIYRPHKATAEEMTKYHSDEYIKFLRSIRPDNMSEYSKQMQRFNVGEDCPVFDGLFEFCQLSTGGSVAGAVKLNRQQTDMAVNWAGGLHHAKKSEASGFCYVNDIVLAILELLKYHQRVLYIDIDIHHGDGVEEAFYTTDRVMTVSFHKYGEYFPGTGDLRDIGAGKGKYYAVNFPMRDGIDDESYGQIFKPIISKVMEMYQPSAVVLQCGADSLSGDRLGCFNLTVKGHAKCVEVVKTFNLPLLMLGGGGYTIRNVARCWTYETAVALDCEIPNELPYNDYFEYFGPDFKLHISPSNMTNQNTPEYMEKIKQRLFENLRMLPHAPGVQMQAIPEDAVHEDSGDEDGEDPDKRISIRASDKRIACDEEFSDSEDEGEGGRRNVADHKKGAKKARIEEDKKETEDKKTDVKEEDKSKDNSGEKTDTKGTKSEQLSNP

Structure (SMILES) | IC50 (purified HDAC2) [nM] | IC50 (purified HDAC6) [nM]
CCC(CC)(c1ccc(OCC(O)C(C)(C)C)c(C)c1)c1ccc(OCC(=O)NO)cn1 (centres unmarked) [AM-155] | 1700 | 2800
CCC(CC)(c1ccc(OCC(O)C(C)(C)C)c(C)c1)c1ccc(OCCCC(=O)NO)cn1 (centres unmarked) [AM-171] | 9600 | 500
CCC(CC)(c1ccc(OCCCCCC(=O)NO)cc1)c1ccc(OCC(O)C(C)(C)C)c(C)n1 (centres unmarked) [AM-193] | 7200 | 300
CCC(CC)(c1ccc(C(=O)NCCCCCC(=O)NO)cc1)c1ccc(OCC(O)C(C)(C)C)c(C)c1 (centres unmarked) [DK-406] | 500 | 600
